Our source for the IC50 values is patent publication US12275729B2 (Merck Sharp & Dohme LLC, priority 2017, dated 2025).

For orientation: IC50 means the concentration that inhibits the measured activity by half.

Experiment [1] addresses T1, IDO1 (Homo sapiens, UniProt P14902). In words: IDO1 Human Whole Blood Assay. It counts as cell-based. Set-up: Human whole blood was drawn in sodium heparin coated tubes from healthy internal donors; from tissue; host or cells: human whole blood from healthy donors, stimulated with LPS and IFNγ. The following applies: LPS and IFNγ stimulated. The method, then: IDO1 Human Whole Blood Assay
Compounds to be tested were serially diluted in ten 3-fold steps in DMSO starting from 10 mM. […] LPS and IFNγ was prepared in RPMI to a 10× of final conc. (1000 ng/mL), final concentration is 100 ng/mL.
Human whole blood was drawn in sodium heparin coated tubes from healthy internal donors. 240 μL of blood was transferred to each of the wells of a v-bottom 96 well plate. 30 μL of compound was transferred from intermediate dilution plate, and incubated for 15 min. 30 μL from stimulants was then transferred to blood and mixed thoroughly.
On day 2 isotope labeled standard of kynurenine and tryptophan was made in water at 1Ox concentration and 30 μL was added to the blood at […] final concentration. The assay plates were centrifuged at 300×G for 10 min with no brake to separate plasma from red blood cells. 60 μL of plasma samples was removed without disturbing red blood cells. Plasma was diluted with RPMI in 1:1 ratio and proteins were precipitated out with two volume of Acetonitrile. The plates were centrifuged at 4000×G for 60 min. 20 μL of supernatant was carefully transferred to a 384 well plate contain 40 μL of 0.1% formic acid in water and analyzed by LC/MS/MS.
LC/MS/MS analyses were performed using Thermo Fisher's LX4-TSQ Quantum Ultra system. This system consists of four Agilent binary high-performance liquid chromatography (HPLC) pumps and a TSQ Quantum Ultra triple quadrupole MS/MS instrument. For each sample, 5 μL were injected onto an Atlantis T3 column (2.1 mm×150 mm, […] particle size) from Waters. The mobile phase gradient pumped at 0.8 mL/min was used to elute the analytes from the column at 25° C. […] Mobile phase A consisted of 0.1% formic acid in water. Mobile phase B consisted of 0.1% of formic acid in acetonitrile. Data was acquired in positive mode using a HESI interface. The operational parameters for the TSQ Quantum Ultra instrument were a spray voltage of 4000 V, capillary temperature of 380° C., vaporizer temperature 400° C., shealth gas 60 arbitrary units, Aux gas 20 arbitrary units, tube lens 85 and collision gas 1.2 mTorr. […] The peak area was integrated by Xcalibur Quan software. The ratios between the kynurenine generated in the reaction and 2D6-Kynurenine spiked-in internal standard were used to generate percentage inhibition and IC50 values.

In experiment [2] the target is T1, IDO1. Put plainly: IDO1 Cellular Assay in HeLa Cells Stimulated with IFNγ. It counts as cell-based. The following applies: read-out: Hela IC50.

T1 sequence (P14902 whole entry): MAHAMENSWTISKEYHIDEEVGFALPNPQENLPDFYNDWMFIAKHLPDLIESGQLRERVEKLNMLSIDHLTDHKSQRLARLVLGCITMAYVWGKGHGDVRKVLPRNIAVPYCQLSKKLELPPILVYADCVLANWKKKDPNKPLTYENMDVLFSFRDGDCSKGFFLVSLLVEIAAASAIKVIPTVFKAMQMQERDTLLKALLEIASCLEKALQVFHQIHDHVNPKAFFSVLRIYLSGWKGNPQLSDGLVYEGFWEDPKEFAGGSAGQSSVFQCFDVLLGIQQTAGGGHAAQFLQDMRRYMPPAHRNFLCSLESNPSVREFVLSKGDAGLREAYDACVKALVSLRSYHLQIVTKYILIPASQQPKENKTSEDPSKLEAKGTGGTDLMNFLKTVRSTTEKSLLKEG

For the compound `CC(C(=O)Nc1ccc(F)cc1)c1ccc2c(c1)CCCN2Cc1cccc(Cl)c1` (single isomer, unassigned) [Example 225, 2-{1-[(3-chlorophenyl)methyl]-1,2,3,4-tetrahydroquinolin-6-yl}-N-(4-fluorophenyl)propanamide], the results for the IC50 against IDO1 [1] and at IDO1 [2] (about 48 hours) were 0.149 µM and 0.0047 µM, respectively.
`Cc1nccc(N2CCCc3nc(C4(NC(=O)c5ccc(Cl)nc5)CC4)ccc32)n1` [Example 300, 6-chloro-N-(1-(5-(2-methylpyrimidin-4-yl)-5,6,7,8-tetrahydro-1,5-naphthyridin-2-yl)cyclopropyl)nicotinamide]: the IC50 was determined as 0.063 µM on IDO1 [1] and 0.0019 µM at IDO1 [2] (about 48 hours).
`N#Cc1cccc(C(=O)N2CCCc3nc(C4(NC(=O)c5ccc(F)cc5)CC4)ccc32)c1` [Example 175, N-{1-[5-(3-cyanobenzene-1-carbonyl)-5,6,7,8-tetrahydro-1,5-naphthyridin-2-yl]cyclopropyl}-4-fluorobenzamide]: the values for the IC50 at IDO1 [1] and at IDO1 [2] (about 48 hours) were 0.019 µM and 0.0049 µM, respectively.
The like results for `O=C([C@H]1CCCCO1)N1CCCc2cc(C3(C(=O)Nc4ccc(F)cc4)CCC3)ccc21` (single isomer, unassigned) [Example 106] were, in that order, 0.012 µM and 0.0012 µM.
Turning to `Cc1nccc(N2CCCc3nc(C(C)C(=O)Nc4ccc(Cl)cc4)ccc32)n1` (centres unmarked) [Example 363, N-(4-chlorophenyl)-2-(5-(2-methylpyrimidin-4-yl)-5,6,7,8-tetrahydro-1,5-naphthyridin-2-yl)propanamide], the figures for the concentration for half-maximal inhibition (IC50) against IDO1 [1] and on IDO1 [2] were 0.178 µM and 0.00093 µM, respectively.
In the case of `O=C(C1CC1)N1CCCc2cc(C3(C(=O)Nc4ccc(F)cn4)CCC3)ccc21` [Example 96, 1-(1-(cyclopropanecarbonyl)-1,2,3,4-tetrahydroquinolin-6-yl)-N-(5-fluoropyridin-2-yl)cyclobutane-1-carboxamide], the figures for the IC50 on IDO1 [1] and at IDO1 [2] (about 48 hours) were 0.223 µM and 0.0062 µM, respectively.
Regarding `CC(NC(=O)c1ccc(Cl)cc1)c1ccc2c(n1)CCCN2c1nc(C(F)(F)F)nc2ccccc12` (centres unmarked) [Example 358, 2-(1-(4-chlorobenzamido)ethyl)-5-(2-(trifluoromethyl)quinazolin-4-yl)-5,6,7,8-tetrahydro-1,5-naphthyridin-1-ium 2,2,2-trifluoroacetate], the IC50 on IDO1 [1] came to 1 µM; on IDO1 [2], 0.00424 µM.
As for `Cc1nccc(N2CCCc3nc(C4(C(=O)Nc5ccc(F)cc5)CC4(F)F)ccc32)n1` (single isomer, unassigned) [Example 422, 2,2-difluoro-N-(4-fluorophenyl)-1-(5-(2-methylpyrimidin-4-yl)-5,6,7,8-tetrahydro-1,5-naphthyridin-2-yl)cyclopropanecarboxamide], the IC50 at IDO1 [1] is 0.012 µM; on IDO1 [2], 0.0017 µM.
For `CC(C(=O)Nc1ccc(F)cc1)c1ccc2c(c1)CCCN2C(=O)C1CC1(F)F` (centres unmarked) [Example 67, 2-[1-(2,2-difluorocyclopropane-1-carbonyl)-1,2,3,4-tetrahydroquinolin-6-yl]-N-(4-fluorophenyl)propanamide], the IC50 against IDO1 [1] is 0.15 µM; at IDO1 [2] (about 48 hours), 0.0041 µM.
In the case of `CC(NC(=O)c1ccc(F)cc1)c1ccc2c(n1)CCCN2C(=O)OCCCc1ccncc1` (centres unmarked) [Example 322, 3-(pyridin-4-yl)propyl 6-(1-(4-fluorobenzamido)ethyl)-3,4-dihydro-1,5-naphthyridine-1(2H)-carboxylate], the IC50 against IDO1 [1] was found to be 0.058 µM; on IDO1 [2] it was 0.453 µM.
Turning to `COC(=O)N1CCCc2nc(C(C)NC(=O)c3ccc(Cl)cc3)ccc21` (centres unmarked) [Example 213, methyl 6-{1-[(4-chlorobenzene-1-carbonyl)amino]ethyl}-3,4-dihydro-1,5-naphthyridine-1(2H)-carboxylate], the half-maximal inhibitory concentration (IC50) at IDO1 [1] turned out to be 0.393 µM; on IDO1 [2] (about 48 hours), 0.0063 µM.
With `COC[C@@H](C)OC(=O)N1CCCc2nc(C(C)NC(=O)c3ccc(F)cc3)ccc21` (stereo partly drawn) [Example 315, (R)-1-methoxypropan-2-yl 6-(1-(4-fluorobenzamido)ethyl)-3,4-dihydro-1,5-naphthyridine-1(2H)-carboxylate], the IC50 at IDO1 [1] was determined as 0.018 µM; at IDO1 [2], 0.0029 µM.
`Cc1nccc(N2CCCc3nc(C4(NC(=O)c5ccc(F)cc5)CCC4)ccc32)n1` [Example 402, 4-fluoro-N-(1-(5-(2-methylpyrimidin-4-yl)-5,6,7,8-tetrahydro-1,5-naphthyridin-2-yl)cyclobutyl)benzamide]: the IC50 on IDO1 [1] turned out to be 0.003 µM; on IDO1 [2] (about 48 hours), 0.00168 µM.
With `CC(NC(=O)c1ccc(F)cc1)c1ccc2c(n1)CCCN2C(=O)c1c(Cl)cccc1Cl` (centres unmarked) [Example 150, N-{1-[5-(2,6-dichlorobenzene-1-carbonyl)-5,6,7,8-tetrahydro-1,5-naphthyridin-2-yl]ethyl}-4-fluorobenzamide], the concentration for half-maximal inhibition (IC50) was 1.14 µM at IDO1 [1] and 0.0073 µM on IDO1 [2] (about 48 hours).
For `CC(C(=O)Nc1ccc(F)cc1)c1ccc2c(c1)CCCN2C(=O)c1cnn(C)c1` (centres unmarked) [Example 48, N-(4-fluorophenyl)-2-[1-(1-methyl-1H-pyrazole-4-carbonyl)-1,2,3,4-tetrahydroquinolin-6-yl]propanamide] the same measures were 0.321 µM and 0.0158 µM.
With `CCC(COC)OC(=O)N1CCCc2nc(C(C)NC(=O)c3ccc(F)cc3)ccc21` (centres unmarked) [Example 331, 1-methoxybutan-2-yl 6-(1-(4-fluorobenzamido)ethyl)-3,4-dihydro-1,5-naphthyridine-1(2H)-carboxylate], the IC50 on IDO1 [1] came out at 0.008 µM; at IDO1 [2], 0.00202 µM.
Turning to `CC1(C(=O)N2CCCc3cc(C4(C(=O)Nc5ccc(F)cc5)CCC4)ccc32)CC1` [Example 104, N-(4-fluorophenyl)-1-[1-(1-methylcyclopropane-1-carbonyl)-1,2,3,4-tetrahydroquinolin-6-yl]cyclobutane-1-carboxamide], the IC50 against IDO1 [1] was 0.115 µM; at IDO1 [2] (about 48 hours), 0.0035 µM.
Consider `Cc1nccc(N2CCCc3nc(C4(NC(=O)c5ccc(F)c(Br)c5)CC4)ccc32)n1` [Example 304, 3-bromo-4-fluoro-N-(1-(5-(2-methylpyrimidin-4-yl)-5,6,7,8-tetrahydro-1,5-naphthyridin-2-yl)cyclopropyl)benzamide], for which the figures for the IC50 against IDO1 [1] and on IDO1 [2] (about 48 hours) were 0.081 µM and 0.00279 µM, respectively.
Take `O=C(N1CCCc2cc(C3(C(=O)Nc4ccc(F)cc4)CCC3)ccc21)C1(F)CC1` [Example 98, 1-[1-(1-fluorocyclopropane-1-carbonyl)-1,2,3,4-tetrahydroquinolin-6-yl]-N-(4-fluorophenyl)cyclobutane-1-carboxamide]: the IC50 was found to be 0.361 µM against IDO1 [1] and 0.0033 µM at IDO1 [2] (about 48 hours).
On to `CC(NC(=O)c1ccc(F)cc1)c1ccc2c(n1)CCCN2C(=O)c1cc(Cl)ccn1` (centres unmarked) [Example 277, N-(1-(5-(4-chloropicolinoyl)-5,6,7,8-tetrahydro-1,5-naphthyridin-2-yl)ethyl)-4-fluorobenzamide], for which the IC50 against IDO1 [1] stood at 0.071 µM; at IDO1 [2] (about 48 hours), 0.0023 µM.
The like results for `CC(NC(=O)c1ccc(F)cc1)c1ccc2c(n1)CCCN2C(=O)c1cc(C(F)F)ccn1` (centres unmarked) [Example 279, N-(1-(5-(4-(difluoromethyl)picolinoyl)-5,6,7,8-tetrahydro-1,5-naphthyridin-2-yl)ethyl)-4-fluorobenzamide] were, in that order, 0.135 µM and 0.0073 µM.
The like results for `CC(C(=O)Nc1ccc(Cl)cc1)c1ccc2c(c1)CC(F)CN2C(=O)c1cccc(Cl)c1` (single isomer, unassigned) [Example 256, 2-(1-(3-chlorobenzoyl)-3-fluoro-1,2,3,4-tetrahydroquinolin-6-yl)-N-(4-chlorophenyl)propanamide] were, in that order, 0.05 µM and 0.00237 µM.
With `CC(NC(=O)c1ccc(F)cc1)c1ccc2c(c1)CCCN2C(CO)c1cccc(Cl)c1` (single isomer, unassigned) [Example 92], the IC50 was 0.378 µM at IDO1 [1] and 0.006 µM at IDO1 [2] (about 48 hours).
For `O=C(C1COC1)N1CCCc2cc(C3(C(=O)Nc4ccc(F)cc4)CCC3)ccc21` [Example 115, N-(4-fluorophenyl)-1-[1-(oxetane-3-carbonyl)-1,2,3,4-tetrahydroquinolin-6-yl]cyclobutane-1-carboxamide], the IC50 was 0.48 µM against IDO1 [1] and 0.02 µM on IDO1 [2] (about 48 hours).
With `COCCOC(=O)N1CCCc2nc(C3(NC(=O)c4ccc(Cl)cc4)CCC3)ccc21` [Example 413, 2-methoxyethyl 6-(1-(4-chlorobenzamido)cyclobutyl)-3,4-dihydro-1,5-naphthyridine-1(2H)-carboxylate], the figures for the IC50 at IDO1 [1] and on IDO1 [2] were 0.017 µM and 0.00379 µM, respectively.
